ChEMBL document CHEMBL1154965, “3-(Arylsulfonyl)-1-(azacyclyl)-1H-indoles are 5-HT(6) receptor modulators” (Bioorg Med Chem Lett, 2010)

These molecules were tested against T1, 5-hydroxytryptamine receptor 6 (Homo sapiens, UniProt P50406) (assay: Displacement of [3H]LSD from human 5-HT6 receptor expressed in human HeLa cells after 2 hrs).
T1 sequence (P50406 whole entry): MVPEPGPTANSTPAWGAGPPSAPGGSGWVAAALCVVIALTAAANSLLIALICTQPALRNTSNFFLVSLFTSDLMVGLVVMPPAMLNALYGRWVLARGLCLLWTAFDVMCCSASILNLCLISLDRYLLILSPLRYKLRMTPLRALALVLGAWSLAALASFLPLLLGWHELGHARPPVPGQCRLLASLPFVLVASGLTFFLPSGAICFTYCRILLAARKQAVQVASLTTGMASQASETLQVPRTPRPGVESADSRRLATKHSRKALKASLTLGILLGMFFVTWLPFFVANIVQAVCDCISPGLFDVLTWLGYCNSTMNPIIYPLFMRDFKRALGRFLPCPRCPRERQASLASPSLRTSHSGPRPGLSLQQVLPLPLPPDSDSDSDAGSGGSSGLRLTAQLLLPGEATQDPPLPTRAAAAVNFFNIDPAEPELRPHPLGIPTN
Type: cell-based
Work on `COc1ccc2c(c1)c(S(=O)(=O)c1cccc(F)c1)cn2C1CCCNC1` (stereo not drawn) yielded a Ki of 10.7 nM. Work on `O=S(=O)(c1ccccc1)c1cn(C2CCN(Cc3ccccc3)C2)c2ccccc12` (stereo not drawn) yielded a Ki of 113 nM. With `CCN1CCCC(n2cc(S(=O)(=O)c3cccc(F)c3)c3cc(OC)ccc32)C1` (stereo not drawn) the Ki was 16 nM. `CN1CCCC(n2cc(S(=O)(=O)c3cccc4ccccc34)c3ccccc32)C1` (stereo not drawn) showed a Ki of 7.1 nM. With `O=S(=O)(c1cn(C2CCCNC2)c2ccccc12)c1cccc2cccnc12` (stereo not drawn) the Ki was 5.6 nM. For `O=S(=O)(c1cccc(F)c1)c1cn(C2CCNC2)c2ccc(F)cc12` (stereo not drawn), the Ki was 9.6 nM. Molecule `CN1CCC(n2cc(S(=O)(=O)c3cccc(F)c3)c3ccccc32)C1` (stereo not drawn) has a Ki of 3.5 nM. With `O=S(=O)(c1cccc(F)c1)c1cn(C2CCNC2)c2cccc(F)c12` (stereo not drawn) the Ki was 18 nM. `CCN1CCCC(n2cc(S(=O)(=O)c3ccccc3)c3ccccc32)C1` (stereo not drawn) gave a Ki of 7.3 nM. Work on `O=S(=O)(c1cccc(F)c1)c1cn(C2CCNC2)c2ccc(Cl)cc12` (stereo not drawn) yielded a Ki of 15 nM. In the case of `O=S(=O)(c1cccc(F)c1)c1cn(C2CCCNC2)c2ccccc12` (stereo not drawn), the Ki is reported as 6 nM. In the case of `CN1CCC(n2cc(S(=O)(=O)c3cccc4ccccc34)c3ccccc32)C1` (stereo not drawn), the Ki is reported as 6 nM. Molecule `O=S(=O)(c1ccccc1)c1cn(C2CCNC2)c2ccccc12` (stereo not drawn) has a Ki of 5 nM. `CN1CCC(n2cc(S(=O)(=O)c3cccc4cccnc34)c3ccccc32)C1` (stereo not drawn) gave a Ki of 2.8 nM. For `CN1CCC(n2cc(S(=O)(=O)c3cccc(F)c3)c3cc(F)ccc32)C1` (stereo not drawn), the Ki was 5 nM. In the case of `COc1ccc2c(S(=O)(=O)c3cccc(Cl)c3)cn(C3CCNC3)c2c1` (stereo not drawn), the Ki is reported as 4.6 nM. `O=S(=O)(c1cccc2ccccc12)c1cn(C2CCNC2)c2ccccc12` (stereo not drawn) was tested, and the Ki was 23.3 nM. In the case of `O=S(=O)(c1cn(C2CCNC2)c2ccccc12)c1cccc2cccnc12` (stereo not drawn), the Ki is reported as 1.5 nM. `CN1CCC(n2cc(S(=O)(=O)c3cccc(Cl)c3)c3ccccc32)C1` (stereo not drawn) gave a Ki of 1.3 nM. `O=S(=O)(c1cccc(F)c1)c1cn(C2CCNC2)c2cc(F)ccc12` (stereo not drawn) showed a Ki of 18 nM. `O=S(=O)(c1cccc(F)c1)c1cn(C2CCNC2)c2ccccc12` (stereo not drawn) gave a Ki of 4.7 nM. Work on `O=S(=O)(c1cccc(F)c1)c1cn(C2CCNC2)c2cc(Cl)ccc12` (stereo not drawn) yielded a Ki of 72 nM. Molecule `O=S(=O)(c1cccc(Cl)c1)c1cn(C2CCNC2)c2ccccc12` (stereo not drawn) has a Ki of 3.2 nM.

These molecules were tested against T1, 5-hydroxytryptamine receptor 6 (assay: Agonist activity at human 5-HT6 receptor expressed in human HeLa cells assessed as effect on 5HT-induced intracellular cAMP level after 10 mins by radioimmunoassay).
Type: functional, cell-based
Molecule `COc1ccc2c(c1)c(S(=O)(=O)c1cccc(F)c1)cn2C1CCCNC1` (stereo not drawn) has an EC50 of 73 nM. With `CCN1CCCC(n2cc(S(=O)(=O)c3cccc(F)c3)c3cc(OC)ccc32)C1` (stereo not drawn) the EC50 was 203 nM. In the case of `O=S(=O)(c1cn(C2CCCNC2)c2ccccc12)c1cccc2cccnc12` (stereo not drawn), the EC50 is reported as 592 nM. In the case of `O=S(=O)(c1cccc(F)c1)c1cn(C2CCNC2)c2ccc(F)cc12` (stereo not drawn), the EC50 is reported as 38 nM. `CN1CCC(n2cc(S(=O)(=O)c3cccc(F)c3)c3ccccc32)C1` (stereo not drawn) was tested, and the EC50 was 398 nM. In the case of `O=S(=O)(c1ccccc1)c1cn(C2CCCNC2)c2ccccc12` (stereo not drawn), the EC50 is reported as 82 nM. In the case of `CCN1CCCC(n2cc(S(=O)(=O)c3ccccc3)c3ccccc32)C1` (stereo not drawn), the EC50 is reported as 31 nM. For `O=S(=O)(c1cccc(F)c1)c1cn(C2CCCNC2)c2ccccc12` (stereo not drawn), the EC50 was 56 nM. For `O=S(=O)(c1ccccc1)c1cn(C2CCNC2)c2ccccc12` (stereo not drawn), the EC50 was 60 nM. Work on `O=S(=O)(c1cccc(F)c1)c1cn(C2CCNC2)c2ccccc12` (stereo not drawn) yielded an EC50 of 68 nM. With `O=S(=O)(c1cccc(Cl)c1)c1cn(C2CCNC2)c2ccccc12` (stereo not drawn) the EC50 was 125 nM.

These molecules were tested against T1, 5-hydroxytryptamine receptor 6 (assay: Agonist activity at human 5-HT6 receptor expressed in human HeLa cells assessed as effect on 5HT-induced intracellular cAMP level after 10 mins by radioimmunoassay relative to serotonin).
Type: functional, cell-based
Work on `COc1ccc2c(c1)c(S(=O)(=O)c1cccc(F)c1)cn2C1CCCNC1` (stereo not drawn) yielded an Emax of 75%. With `CCN1CCCC(n2cc(S(=O)(=O)c3cccc(F)c3)c3cc(OC)ccc32)C1` (stereo not drawn) the Emax was 50%. Molecule `O=S(=O)(c1cn(C2CCCNC2)c2ccccc12)c1cccc2cccnc12` (stereo not drawn) has an Emax of 71%. For `O=S(=O)(c1cccc(F)c1)c1cn(C2CCNC2)c2ccc(F)cc12` (stereo not drawn), the Emax was 50%. For `CN1CCC(n2cc(S(=O)(=O)c3cccc(F)c3)c3ccccc32)C1` (stereo not drawn), the Emax was 49%. `O=S(=O)(c1ccccc1)c1cn(C2CCCNC2)c2ccccc12` (stereo not drawn) was tested, and the Emax was 99%. Molecule `CCN1CCCC(n2cc(S(=O)(=O)c3ccccc3)c3ccccc32)C1` (stereo not drawn) has an Emax of 52%. With `O=S(=O)(c1cccc(F)c1)c1cn(C2CCCNC2)c2ccccc12` (stereo not drawn) the Emax was 78%. Molecule `O=S(=O)(c1ccccc1)c1cn(C2CCNC2)c2ccccc12` (stereo not drawn) has an Emax of 70%. Molecule `O=S(=O)(c1cccc(F)c1)c1cn(C2CCNC2)c2ccccc12` (stereo not drawn) has an Emax of 38%. Work on `O=S(=O)(c1cccc(Cl)c1)c1cn(C2CCNC2)c2ccccc12` (stereo not drawn) yielded an Emax of 48%.

What follows are molecules tested against T1, 5-hydroxytryptamine receptor 6 (assay: Antagonist activity at human 5-HT6 receptor expressed in human HeLa cells assessed as inhibition of 5HT-induced intracellular cAMP level after 10 mins by radioimmunoassay).
Type: functional, cell-based
`CN1CCCC(n2cc(S(=O)(=O)c3cccc4ccccc34)c3ccccc32)C1` (stereo not drawn) gave an IC50 of 107 nM. For `O=S(=O)(c1cccc(F)c1)c1cn(C2CCCNC2)c2ccc(F)cc12` (stereo not drawn), the IC50 was 18 nM. With `CN1CCC(n2cc(S(=O)(=O)c3cccc4ccccc34)c3ccccc32)C1` (stereo not drawn) the IC50 was 60 nM. `CN1CCC(n2cc(S(=O)(=O)c3cccc4cccnc34)c3ccccc32)C1` (stereo not drawn) showed an IC50 of 76 nM. `CN1CCC(n2cc(S(=O)(=O)c3cccc(F)c3)c3cc(F)ccc32)C1` (stereo not drawn) was tested, and the IC50 was 94 nM. In the case of `COc1ccc2c(S(=O)(=O)c3cccc(Cl)c3)cn(C3CCNC3)c2c1` (stereo not drawn), the IC50 is reported as 80 nM. `O=S(=O)(c1cccc2ccccc12)c1cn(C2CCNC2)c2ccccc12` (stereo not drawn) showed an IC50 of 107 nM. Molecule `O=S(=O)(c1cn(C2CCNC2)c2ccccc12)c1cccc2cccnc12` (stereo not drawn) has an IC50 of 82 nM. `CN1CCC(n2cc(S(=O)(=O)c3cccc(Cl)c3)c3ccccc32)C1` (stereo not drawn) was tested, and the IC50 was 17 nM.

The molecules below were run against T1, 5-hydroxytryptamine receptor 6 (assay: Antagonist activity at human 5-HT6 receptor expressed in human HeLa cells assessed as inhibition of 5HT-induced intracellular cAMP level after 10 mins by radioimmunoassay relative to serotonin).
Type: functional, cell-based
For `CN1CCCC(n2cc(S(=O)(=O)c3cccc4ccccc34)c3ccccc32)C1` (stereo not drawn), the Imax was 87%. With `O=S(=O)(c1cccc(F)c1)c1cn(C2CCCNC2)c2ccc(F)cc12` (stereo not drawn) the Imax was 85%. `CN1CCC(n2cc(S(=O)(=O)c3cccc4ccccc34)c3ccccc32)C1` (stereo not drawn) showed an Imax of 98%. `CN1CCC(n2cc(S(=O)(=O)c3cccc4cccnc34)c3ccccc32)C1` (stereo not drawn) showed an Imax of 97%. `CN1CCC(n2cc(S(=O)(=O)c3cccc(F)c3)c3cc(F)ccc32)C1` (stereo not drawn) showed an Imax of 70%. `COc1ccc2c(S(=O)(=O)c3cccc(Cl)c3)cn(C3CCNC3)c2c1` (stereo not drawn) was tested, and the Imax was 100%. Molecule `O=S(=O)(c1cccc2ccccc12)c1cn(C2CCNC2)c2ccccc12` (stereo not drawn) has an Imax of 100%. `O=S(=O)(c1cn(C2CCNC2)c2ccccc12)c1cccc2cccnc12` (stereo not drawn) showed an Imax of 64%. Work on `CN1CCC(n2cc(S(=O)(=O)c3cccc(Cl)c3)c3ccccc32)C1` (stereo not drawn) yielded an Imax of 86%.
